Laboratory results as given in patent US9618513B2, “Compositions and methods for detecting and treating colorectal cancer” (The Regents of the University of Michigan, priority 2014, dated 2017).

Tests used:
Type in all cases: cell-based, human
colon cancer cells = experiment: Colon cancer cell proliferation (Ki67 FACS, H3 thymidine incorporation, cell counting); conditions: H3 thymidine incorporation
Text: A. GSEA analysis identifies proliferation pathways have positive correlation with IL-22. B. Cell proliferation maker Ki67 was detected by FACS. C. H^3 Thymidine Incorporation was used to detect the function of IL-22 in cell proliferation. D. Cell number was counted after stimulated with IL-22. E. Cells isolated from colon cancer tissue (Tumor cells and Leukocytes) were stimulated with a-CD3 and […] for 3 days, and supernatant mixed with or without anti-IL-22 antibody was co-cultured with DLD1 cells for 24 h to test cell proliferation. F. Cell cyclin-dependent kinase and kinase inhibitors were analyzed by Real-Time PCR.
A, C. Cell proliferation was analyzed using H^3 Thymidine Incorporation. B. The level of total H3K79m2 and H3K27me3 was measured by Western Blot. D. PcG proteins of EZH2, EED, SUZ12 was increased with IL-22(20 ng/ml) treatment. E. EZH2, SUZ12 and EED was detected by Western Blot after IL-22 treated for 24 h or 48 h. F. EZH2 inhibitor DZNep reduced cell proliferation. G.H. The efficiency of EZH2 and SUZ12 knock down was tested by Western Blot. I.J. Cell proliferation was analyzed using H^3 Thymidine Incorporation after knock down of EZH2 and SUZ12. K.L. Relative expression of cyclin-dependent kinase inhibitors (p16 and p18) in shEZH2, shSUZ12 and Dznep treated cells after IL-22 treatment. M. The level of H3K27me3 in the promoter of p16 and p18 was analyzed by ChIP assay.
A. The protein level of phosphorylated STAT3, STAT1 and STATS were activated by IL-22. B. The effect of STAT3 knock down. C. The effect of IL-22 on cell proliferation was analyzed using H^3 Thymidine Incorporation in Stat3 knock down cells. D. Knock down of STAT3 reduced the expression of EZH2 and SUZ12. E. Based on the ENCODE STAT3-ChIP-Seq data base, STAT3 occupancy on the promoter areas of SUZ12 and EED is shown. F. SUZ12/EED DNA was detected by ChIP assay using an antibody against STAT3, c-fos was used as a positive control.
(§1) Three primary colon cancer cell lines (SB, WR, JR) were established from fresh colon tissues. These primary colon cancer cells and DLD1 (ATCC) were studied. Colon cancer cells were treated with recombinant IL-22 (R&D) for different time points. The EZH2 inhibitor DZNep was added in conventional or sphere culture (see, e.g., Kryczek, I., et al., (2012) International journal of cancer 130, 29-39). Tumor cell sphere formation and gene expression were examined (see, e.g., Kryczek, I., et al., (2012) International journal of cancer 130, 29-39).

[1] = system: primary colon cancer cell line SBCA; experiment: Proliferation of primary colon cancer cell line SBCA
Procedure: FIG. 21A-E A. Dot1L/H3K79me2 inhibitor EZP004777 (10 uM) had no effect on SUZ12 expression but reduce Sox2. B. EZP004777 had no effect on primary colon cancer cell line SBCA. C. EZH2 inhibitor DZNep reduced SBCA cell proliferation. D. SUZ12 knockdown reduced H3K27m3 level. E. Effect of I1-22 on tumor sphere assay was analyzed in shEZH2, shSUZ12 and Dznep treated cells.
as §1

CD4+ T cells = experiment: Transwell migration assay; conditions: CCL-20 5 ng/ml in lower chamber, 4 h
Procedure: (A, B) IL-22 is expressed by immune cells in colon cancer tissues. Different cell populations were sorted from colon cancer tissues and IL-22 expression was measured by real time PCR. (5-10 donors, P<0.05). (C) IL-22 is spontaneously released by different immune cell populations in colon cancer tissues. Different CD45^+ immune subsets (10^6/ml) were sorted from colon cancer and blood, and cultured for 12 hours. IL-22 was detected via ELISA. (n=5, *P<0.05). (D, E) IL-22 is expressed by activated CD4^+ T cells in colon cancer tissues. CD45^+ subsets (10^6/ml) were sorted from colon cancer and blood, and were activated with anti-CD3 and anti-CD28 for 2 days. IL-22 was detected with ELISA (D) or intracellular staining (E). (n=5, *P<0.05). (F, G) CCR6^+CD4^+ T cells express IL-22. CD4^+ T cells were sorted based on CCR6 expression and activated with anti-CD3 and anti-CD28 and antigen presenting cells. IL-22 mRNA was detected by real time PCR (F) and protein by ELISA (G). (5 different donors, P<0.05). […] IL-22 expression was quantified with real-time PCR in the migrated and non-migrated cells. Results are expressed as the mean relative expression (H). The phenotype of migrated cells, non-migrated cells and control (before migration) was analyzed by FACS (I). […] The mRNA of stem cell core genes was detected by real-time PCR after 6 hours (K) and ALDH activity was detected by FACS after 48 hours (L). […]

Row | Compound | colon cancer cell proliferation induced by IL-22 (colon cancer cells) | SBCA cell proliferation [1] | T cell migration (CD4+ T cells)
1 | Nc1nccc2c1ncn2C1C=C(CO)C(O)C1O (stereo not drawn) [DZNep, reference compound] | significantly blocked | reduced | –
2 | CCL20: the ligand for CCR6; CCL-20 (5 ng/ml, R&D) | – | – | efficiently migrated
